From patent publication US20100285145A1, “GPR 119 MODULATORS” (PFIZER INC, priority 2009, published 2010)
“And” between values parts separate entries of the source, which are not always exact repeats. Identical values can stand only once.

Assays:
human GPR119 = target: T1, human GPR119 (Homo sapiens, UniProt Q8TDV5); assay: β-Lactamase reporter functional assay (hGPR119 HEK293-CRE beta-lactamase cells); assay type: cell-based; set-up: host or cells: HEK293-CRE beta-lactamase; Emax: dose or concentration left out as unconfirmed; settings: for EC50: hGPR119 HEK293-CRE beta-lactamase cells, 16 h incubation, each line a separate determination, read-out: Human B-lactamase Functional EC50; for Intrinsic Activity (Human B-lactamase) / Emax: percent of maximal activity relative to standard GPR119 agonist at 10 micromolar; for Emax: read-out: Intrinsic Activity (Human B-lactamase)
T1 sequence (Q8TDV5 1-335): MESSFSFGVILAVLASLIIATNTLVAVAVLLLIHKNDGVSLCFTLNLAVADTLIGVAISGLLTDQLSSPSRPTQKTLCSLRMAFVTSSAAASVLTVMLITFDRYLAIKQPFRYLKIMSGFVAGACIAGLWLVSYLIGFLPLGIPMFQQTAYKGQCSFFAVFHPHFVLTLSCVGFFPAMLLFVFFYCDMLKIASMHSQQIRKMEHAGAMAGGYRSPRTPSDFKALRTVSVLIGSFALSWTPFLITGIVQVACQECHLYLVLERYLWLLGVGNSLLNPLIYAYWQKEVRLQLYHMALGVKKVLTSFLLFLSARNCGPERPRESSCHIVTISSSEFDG
Description: The assay for GPR119 agonists utilizes a cell-based (hGPR119 HEK293-CRE beta-lactamase) reporter construct where agonist activation of human GPR119 is coupled to beta-lactamase production via a cyclic AMP response element (CRE). GPR119 activity is then measured utilizing a FRET-enabled beta-lactamase substrate, CCF4-AM (Live Blazer FRET-B/G Loading kit, Invitrogen cat #K1027). Specifically, hGPR119-HEK-CRE-beta-lactamase cells (Invitrogen 2.5×10^7/mL) were removed from liquid nitrogen storage, and diluted in plating medium (Dulbecco's modified Eagle medium high glucose (DMEM; Gibco Cat # 11995-065), 10% heat inactivated fetal bovine serum (HIFBS; Sigma Cat # F4135), 1×MEM Nonessential amino acids (Gibco Cat # 15630-080), 25 mM HEPES pH 7.0 (Gibco Cat # 15630-080), 200 nM potassium clavulanate (Sigma Cat # P3494). The cell concentration was adjusted using cell plating medium and 50 microL of this cell suspension ([…]) was added into each well of a black, clear bottom, poly-d-lysine coated 384-well plate (Greiner Bio-One cat# 781946) and incubated at 37 degrees Celsius in a humidified environment containing 5% carbon dioxide. After 4 hours the plating medium was removed and replaced with 40 microL of assay medium (Assay medium is plating medium without potassium clavulanate and HIFBS). Varying concentrations of each compound to be tested was then added in a volume of 10 microL (final DMSO ≦0.5%) and the cells were incubated for 16 hours at 37 degrees Celsius in a humidified environment containing 5% carbon dioxide. Plates were removed from the incubator and allowed to equilibrate to room temperature for approximately 15 minutes. 10 microL of 6×CCF4/AM working dye solution (prepared according to instructions in the Live Blazer FRET-B/G Loading kit, Invitrogen cat #K1027) was added per well and incubated at room temperature for 2 hours in the dark. Fluorescence was measured on an EnVision fluorimetric plate reader, excitation 405 nm, emission 460 nm/535 nm. EC50 determinations were made from agonist-response curves analyzed with a curve fitting program using a 4-parameter logistic dose-response equation.

male Wistar rats = assay: Intraperitoneal glucose tolerance test (IPGTT); assay type: in vivo; settings: rat
From the text: All in vivo protocols were approved by the Pfizer's Animal Welfare Committee. Naive male Wistar rats (225-250 g body weight on receipt) were obtained from Harlan Laboratories (Indianapolis, Ind.), were pair housed in hanging plastic caging on Sani-chips sawdust bedding, and fed ad libitum on Purina 5001 chow. The rats were housed under a controlled light cycle (light from 6 am to 6 pm) at controlled temperature and humidity conditions. Rats were acclimated to the facility for at least 1 week prior to study.
Rats were assigned (n=8/group) to vehicle or one of three dose groups ([…]) according to body weight on day −0.1 to ensure that each group had equal group mean body weight values. The rats were fasted overnight in clean cages overnight (˜15 hours) prior to the intra-peritoneal glucose tolerance test. Body weights were recorded on the morning of the study (post fasting) for dose volume calculation. Blood samples were collected from all rats prior to dosing with vehicle (0.5% methylcellulose) or test compound via oral gavage (5 mL/kg). Sixty minutes later rats were bled and immediately dose with an IP dose of glucose (2 g/kg). The rats were re-bled at 15, 30, 60 and 120 minutes post-glucose load. Blood samples (˜250 μL/time point) were collected into EDTA tubes with aprotinin/DPPIVi (0.6 TIU/20 μL per mL whole blood), for the determination of plasma glucose, insulin, and total amide GLP-1 concentrations. Blood tubes were inverted several times immediately following collection and placed on ice, then spun at 14,000 rpm in a refrigerated centrifuge for 5 minutes. Plasma samples were analyzed for glucose levels using a Roche 912 clinical chemistry analyzer and plasma insulin concentrations were determined using the Alpco Ultra-Sensitive Insulin Rat Elisa.
The results are presented as mean+/−SEM (standard error of the mean) unless otherwise stated. Statistical evaluation of the data is carried out using one-way analysis of variance (ANOVA) with appropriate post-hoc analysis between vehicle and treatment group. Differences compared to vehicle with a P<0.05 were considered statistically significant using Dunnett's T-test.
IPGTT studies were performed with Example 3, either prepared as described above (dosed as a suspension in 0.5% methylcellulose) or prepared as an amorphous dispersion (25% active) with hydroxyproylmethylcellulose-acetate succinate (dosed as a suspension in 0.5% methylcellulose/0.1% polysorbate 80). […] Statistical significance is based on a comparison to the vehicle group.

[1] = 20 mg/kg SDD (amorphous dispersion 25% active with HPMC-acetate succinate)

Row | SMILES | EC50 (human GPR119) | Intrinsic Activity (Human B-lactamase) (human GPR119) | Emax (human GPR119) | other results
1 | CC(C)OC(=O)N1CCC(Oc2cc(N3CCc4cc(C#N)ccc43)ncn2)CC1 [Example 10, Isopropyl 4-{[6-(5-cyano-2,3-dihydro-1H-indol-1-yl)pyrimidin-4-yl]oxy}piperidine-1-carboxylate] | 46.7 nM and 37.2 nM | 85.8% | 90% | –
2 | Cc1c(O[C@H]2CCN(C(=O)OC3(C)CC3)C[C@H]2F)ncnc1N1CCc2ncccc21 [Example 17, 1-Methylcyclopropyl (3R,4S)-4-{[6-(2,3-dihydro-1H-pyrrolo[3,2-b]pyridin-1-yl)-5-methylpyrimidin-4-yl]oxy}-3-fluoropiperidine-1-carboxylate] | – | – | – | Insulin 0-60 min AUC (percent vehicle response) (male Wistar rats; 1 mg/kg oral): 126 percent vehicle response; Total Amide GLP-1 0-120 min AUC (percent vehicle response) (male Wistar rats; 1 mg/kg oral): 235 percent vehicle response; Glucose 0-120 min AUC (percent vehicle response) (male Wistar rats; 1 mg/kg oral, 60 min before IP glucose 2 g/kg): 88 percent vehicle response; Insulin 0-60 min AUC (percent vehicle response) (male Wistar rats; 10 mg/kg oral): ++162 percent vehicle response; Total Amide GLP-1 0-120 min AUC (percent vehicle response) (male Wistar rats; 10 mg/kg oral): 237 percent vehicle response; Glucose 0-120 min AUC (percent vehicle response) (male Wistar rats; 10 mg/kg oral, 60 min before IP glucose 2 g/kg): ++69 percent vehicle response
3 | CC(C)OC(=O)N1CCC(Oc2cc(N3CCc4cc(C(=O)N(C)C)ccc43)ncn2)CC1 [Example 9, 4-[6-(5-Dimethylcarbamoyl-2,3-dihydroindol-1-yl)-pyrimidin-4-yloxy]-piperidine-1-carboxylic acid isopropyl ester] | 37.3 nM and 32.8 nM | 101% | 100% | –
4 | Cc1c(OC2CCN(C(=O)OC(C)C)CC2)ncnc1N1CCc2ncccc21 [Example 13, Isopropyl 4-{[6-(2,3-dihydro-1H-pyrrolo[3,2-b]pyridin-1-yl)-5-methylpyrimidin-4-yl]oxy}-piperidine-1-carboxylate] | 236 nM and 203 nM | 97.8% | 92.6% | –
5 | CC(C)OC(=O)N1C[C@H]2COC[C@@H](C1)[C@H]2Oc1cc(N2CCc3cc(S(C)(=O)=O)ccc32)ncn1 [Example 1, Isopropyl 9-anti-({6-[5-(methylsulfonyl)-2,3-dihydro-1H-indol-1-yl]pyrimidin-4-yl}oxy)-3-oxa-7-azabicyclo[3.3.1]nonane-7-carboxylate] | 75.9 nM and 72.3 nM | 109% | 107% | –
6 | Cc1c(OC2CCN(C(=O)OC(C)C)CC2)ncnc1N1CCc2cc(S(C)(=O)=O)ccc21 [Example 8, Isopropyl 4-({5-methyl-6-[5-(methylsulfonyl)-2,3-dihydro-1H-indol-1-yl]pyrimidin-4-yl}oxy)piperidine-1-carboxylate] | 43.5 nM and 57.4 nM | 99.2% | 100% | –
7 | CC(C)OC(=O)N1CCC(Oc2ncnc(N3CCc4cc(S(C)(=O)=O)ccc43)c2C#N)CC1 [Example 6, Isopropyl 4-({5-cyano-6-[5-(methylsulfonyl)-2,3-dihydro-1H-indol-1-yl]pyrimidin-4-yl}oxy)piperidine-1-carboxylate] | 7.8 nM and 6.45 nM | 103% | 99.9% | –
8 | CC(C)(C)OC(=O)N1CCC(Oc2cc(N3CCc4cc(S(C)(=O)=O)ccc43)ncn2)C(F)C1 (racemic) [Example 15, tert-Butyl 3-fluoro-4-({6-[5-(methylsulfonyl)-2,3-dihydro-1H-indol-1-yl]pyrimidin-4-yl}oxy)piperidine-1-carboxylate] | 7.2 nM and 4.09 nM and 2.82 nM | 113% and 112% | 107% | –
9 | Cc1c(O[C@@H]2[C@@H]3COC[C@H]2CN(C(=O)OC(C)C)C3)ncnc1N1CCc2cc(S(C)(=O)=O)ccc21 [Example 23, Isopropyl (9-syn)-9-({5-methyl-6-[5-(methylsulfonyl)-2,3-dihydro-1H-indol-1-yl]pyrimidin-4-yl}oxy)-3-oxa-7-azabicyclo[3.3.1]nonane-7-carboxylate] | – | – | 97.9% | –
10 | CC(C)OC(=O)N1CCC(Oc2cc(N3CCc4ncccc43)ncn2)CC1 [Example 12, Isopropyl 4-{[6-(2,3-dihydro-1H-pyrrolo[3,2-b]pyridin-1-yl)pyrimidin-4-yl]oxy}piperidine-1-carboxylate] | 2100 nM and 2160 nM | 121% | 110% | –
11 | CC(C)OC(=O)N1CCC(Oc2cc(N3CCc4cc(S(C)(=O)=O)ccc43)ncn2)CC1 [Example 3, Isopropyl 4-({6-[5-(methylsulfonyl)-2,3-dihydro-1H-indol-1-yl]pyrimidin-4-yl}oxy)piperidine-1-carboxylate] | 12.6 nM and 29.7 nM and 13.8 nM and 12.3 nM | 102% and 81.8% and 93.4% and 107% | – | Glucose 0-120 min AUC (percent vehicle response) (male Wistar rats; [1]): ++89 percent vehicle response; Insulin AUC (0-60 min) (percent vehicle response) (male Wistar rats; [1]): 118 percent vehicle response; Glucose 0-120 min AUC (percent vehicle response) (male Wistar rats; 20 mg/kg in 0.5% methylcellulose, IP glucose administered 30 minutes post dose): ++85 percent vehicle response
12 | CC(C)OC(=O)N1CCC(Oc2cc(N3CCc4cc(S(=O)(=O)CCO)ccc43)ncn2)CC1 [Example 11, Isopropyl 4-[(6-{5-[(2-hydroxyethyl)sulfonyl]-2,3-dihydro-1H-indol-1-yl}pyrimidin-4-yl)oxy]piperidine-1-carboxylate] | 40.7 nM | – | 103% | –
